Assay results: paper PMC3961306, “Comparison of the Cancer Gene Targeting and Biochemical Selectivities of All Targeted Kinase Inhibitors Approved for Clinical Use” (PLoS ONE, 2014)

Key:
Assay in all cases: Kinase profiling in a biochemical assay panel (mobility shift assays and ELISA), %-inhibition at 1 μM; selectivity entropy
[1] = target: T1, panel of more than 300 wild-type and mutant kinases (313 kinase panel) (Homo sapiens, UniProt O00141)
T1 sequence (O00141 1-431): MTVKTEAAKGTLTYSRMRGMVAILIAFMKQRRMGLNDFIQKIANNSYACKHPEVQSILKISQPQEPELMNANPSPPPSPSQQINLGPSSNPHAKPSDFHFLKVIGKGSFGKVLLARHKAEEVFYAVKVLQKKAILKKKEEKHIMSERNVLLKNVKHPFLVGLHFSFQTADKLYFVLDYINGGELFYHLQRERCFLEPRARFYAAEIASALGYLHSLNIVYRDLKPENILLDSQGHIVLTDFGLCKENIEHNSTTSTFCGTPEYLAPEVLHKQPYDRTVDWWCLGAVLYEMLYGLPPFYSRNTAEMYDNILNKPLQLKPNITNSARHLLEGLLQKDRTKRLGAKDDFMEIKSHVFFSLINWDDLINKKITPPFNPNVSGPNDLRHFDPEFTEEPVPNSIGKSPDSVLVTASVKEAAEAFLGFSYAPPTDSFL

[2] = target: panel of more than 300 wild-type and mutant kinases (313 kinase panel) (Homo sapiens, UniProt P08631)
[3] = target: T2, panel of more than 300 wild-type and mutant kinases (313 kinase panel) (Homo sapiens, UniProt Q13976)
T2 sequence (Q13976 1-671): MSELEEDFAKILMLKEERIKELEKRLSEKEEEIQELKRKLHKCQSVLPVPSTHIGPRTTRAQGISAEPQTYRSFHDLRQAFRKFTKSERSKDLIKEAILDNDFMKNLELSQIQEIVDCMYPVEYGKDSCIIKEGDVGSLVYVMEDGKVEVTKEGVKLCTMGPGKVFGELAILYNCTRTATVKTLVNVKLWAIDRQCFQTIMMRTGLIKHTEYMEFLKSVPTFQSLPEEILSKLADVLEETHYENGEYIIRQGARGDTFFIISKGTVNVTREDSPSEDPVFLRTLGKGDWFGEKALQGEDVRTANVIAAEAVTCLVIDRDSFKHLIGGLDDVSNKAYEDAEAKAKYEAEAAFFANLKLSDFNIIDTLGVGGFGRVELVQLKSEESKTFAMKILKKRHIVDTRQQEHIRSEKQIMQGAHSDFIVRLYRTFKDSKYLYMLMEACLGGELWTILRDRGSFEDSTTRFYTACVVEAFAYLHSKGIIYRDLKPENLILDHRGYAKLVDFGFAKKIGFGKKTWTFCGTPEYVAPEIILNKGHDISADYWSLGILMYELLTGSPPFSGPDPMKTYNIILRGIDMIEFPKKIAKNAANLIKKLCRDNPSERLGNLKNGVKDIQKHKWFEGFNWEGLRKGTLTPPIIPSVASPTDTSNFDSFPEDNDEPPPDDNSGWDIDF

[4] = target: panel of more than 300 wild-type and mutant kinases (313 kinase panel) (Homo sapiens, UniProt Q8IY84)
[5] = target: T3, panel of more than 300 wild-type and mutant kinases (313 kinase panel) (Homo sapiens, UniProt Q9BXA7)
T3 sequence (Q9BXA7 1-367): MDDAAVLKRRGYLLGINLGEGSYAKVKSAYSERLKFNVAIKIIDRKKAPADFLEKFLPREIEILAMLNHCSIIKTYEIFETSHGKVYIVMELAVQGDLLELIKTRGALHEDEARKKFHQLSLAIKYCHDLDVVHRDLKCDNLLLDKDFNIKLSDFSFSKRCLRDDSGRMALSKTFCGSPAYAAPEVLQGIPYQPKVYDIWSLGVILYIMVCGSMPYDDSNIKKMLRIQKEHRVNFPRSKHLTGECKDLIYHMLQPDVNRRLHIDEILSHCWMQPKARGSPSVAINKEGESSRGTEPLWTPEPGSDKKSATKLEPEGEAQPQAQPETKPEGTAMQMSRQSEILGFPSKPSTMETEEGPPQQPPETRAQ

[6] = target: panel of more than 300 wild-type and mutant kinases (313 kinase panel) (Homo sapiens, UniProt Q9H422)
[7] = target: panel of more than 300 wild-type and mutant kinases (313 kinase panel) (Homo sapiens, UniProt Q9Y5S2)
[8] = target: T4, panel of more than 300 wild-type and mutant kinases (313 kinase panel) (Homo sapiens, UniProt O15264)
T4 sequence (O15264 1-365): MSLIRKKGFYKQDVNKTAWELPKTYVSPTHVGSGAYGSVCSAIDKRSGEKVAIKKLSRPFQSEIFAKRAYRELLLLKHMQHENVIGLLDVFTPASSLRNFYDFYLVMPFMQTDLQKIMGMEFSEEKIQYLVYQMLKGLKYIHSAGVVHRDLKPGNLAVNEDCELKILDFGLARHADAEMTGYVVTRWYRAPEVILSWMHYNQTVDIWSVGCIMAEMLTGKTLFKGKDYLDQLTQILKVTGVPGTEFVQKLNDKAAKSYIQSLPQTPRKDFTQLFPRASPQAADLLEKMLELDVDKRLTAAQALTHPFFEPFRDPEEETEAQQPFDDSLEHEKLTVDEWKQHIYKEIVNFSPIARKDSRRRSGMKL

[9] = target: panel of more than 300 wild-type and mutant kinases (313 kinase panel) (Homo sapiens, UniProt Q15375)
[10] = target: panel of more than 300 wild-type and mutant kinases (313 kinase panel) (Homo sapiens, UniProt Q9UPE1)

Sequence of panel of more than 300 wild-type and mutant kinases (313 kinase panel) (Homo sapiens, UniProt P08631) (P08631 whole entry, change not shown): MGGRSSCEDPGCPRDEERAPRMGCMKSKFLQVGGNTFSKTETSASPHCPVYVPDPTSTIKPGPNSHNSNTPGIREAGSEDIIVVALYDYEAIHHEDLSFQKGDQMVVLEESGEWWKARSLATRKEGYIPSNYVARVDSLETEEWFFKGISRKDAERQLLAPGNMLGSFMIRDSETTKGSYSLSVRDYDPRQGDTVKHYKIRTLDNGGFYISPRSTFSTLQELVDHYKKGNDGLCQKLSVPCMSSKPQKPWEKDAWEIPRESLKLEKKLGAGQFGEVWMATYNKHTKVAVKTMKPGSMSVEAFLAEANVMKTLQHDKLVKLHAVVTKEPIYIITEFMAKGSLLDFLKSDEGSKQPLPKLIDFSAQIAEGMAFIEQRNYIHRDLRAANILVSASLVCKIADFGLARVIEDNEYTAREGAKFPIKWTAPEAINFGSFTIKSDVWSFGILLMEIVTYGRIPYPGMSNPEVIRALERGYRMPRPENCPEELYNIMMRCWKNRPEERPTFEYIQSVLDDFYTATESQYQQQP
Sequence of panel of more than 300 wild-type and mutant kinases (313 kinase panel) (Homo sapiens, UniProt Q15375) (Q15375 28-998, change not shown): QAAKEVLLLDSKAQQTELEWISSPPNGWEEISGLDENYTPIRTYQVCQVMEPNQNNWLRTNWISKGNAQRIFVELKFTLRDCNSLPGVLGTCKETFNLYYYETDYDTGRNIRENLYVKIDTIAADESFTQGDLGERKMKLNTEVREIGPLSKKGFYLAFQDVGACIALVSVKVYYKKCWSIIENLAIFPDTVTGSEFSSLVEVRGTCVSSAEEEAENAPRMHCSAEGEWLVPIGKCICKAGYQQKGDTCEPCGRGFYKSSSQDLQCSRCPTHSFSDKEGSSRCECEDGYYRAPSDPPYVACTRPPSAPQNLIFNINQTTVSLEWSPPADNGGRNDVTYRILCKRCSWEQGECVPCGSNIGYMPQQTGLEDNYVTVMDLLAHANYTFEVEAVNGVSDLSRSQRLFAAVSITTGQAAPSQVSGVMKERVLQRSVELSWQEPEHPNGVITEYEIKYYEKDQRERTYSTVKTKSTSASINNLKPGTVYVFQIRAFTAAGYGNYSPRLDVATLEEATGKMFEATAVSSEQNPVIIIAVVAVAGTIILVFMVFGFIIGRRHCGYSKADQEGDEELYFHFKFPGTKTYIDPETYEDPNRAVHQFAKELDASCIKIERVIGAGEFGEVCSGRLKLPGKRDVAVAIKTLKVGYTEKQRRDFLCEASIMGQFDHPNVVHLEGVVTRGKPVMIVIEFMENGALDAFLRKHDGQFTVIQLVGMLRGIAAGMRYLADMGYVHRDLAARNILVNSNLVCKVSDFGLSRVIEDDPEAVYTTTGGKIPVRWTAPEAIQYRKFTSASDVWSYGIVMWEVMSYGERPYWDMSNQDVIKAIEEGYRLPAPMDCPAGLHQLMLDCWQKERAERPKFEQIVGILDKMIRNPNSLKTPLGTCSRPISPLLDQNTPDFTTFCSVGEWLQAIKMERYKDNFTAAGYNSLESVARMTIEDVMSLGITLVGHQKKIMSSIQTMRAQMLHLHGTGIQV

Compound | %-inhibition of SGK ([1]; kinase SGK, 1 μM) | %-inhibition of HCK ([2]; kinase HCK, compound at 1 μM) | %-inhibition of PGK ([3]; kinase PGK, 1 μM) | %-inhibition of MGC42105 ([4]; kinase MGC42105, 1 μM) | %-inhibition of TSSK1 ([5]; kinase TSSK1, 1 μM) | %-inhibition of HIPK3 ([6]; kinase HIPK3, compound at 1 μM) | %-inhibition of MRCKβ ([7]; kinase MRCKβ, 1 μM) | %-inhibition of p38δ ([8]; kinase p38δ, 1 μM) | %-inhibition of EPHA7 ([9]; kinase EPHA7, compound at 1 μM) | %-inhibition of MSSK1 ([10]; kinase MSSK1, 1 μM) | %-inhibition of SGK ([1]; 1 µM) | %-inhibition of p38δ ([8]; 1 µM) | %-inhibition of HCK ([2]; 1 µM) | %-inhibition of PGK ([3]; 1 µM) | %-inhibition of EPHA7 ([9]; 1 µM) | %-inhibition of MGC42105 ([4]; 1 µM) | %-inhibition of TSSK1 ([5]; 1 µM) | %-inhibition of HIPK3 ([6]; 1 µM) | %-inhibition of MSSK1 ([10]; 1 µM) | %-inhibition of MRCKβ ([7]; 1 µM)
COc1cc(Nc2c(C#N)cnc3cc(OCCCN4CCN(C)CC4)c(OC)cc23)c(Cl)cc1Cl [bosutinib] | -5% | 89% | -3.22% | 32% | 29% | -3.66% | 66% |  |  |  |  |  |  |  |  |  |  |  |  | 
COc1cc2nccc(Oc3ccc(NC(=O)C4(C(=O)Nc5ccc(F)cc5)CC4)cc3)c2cc1OC [cabozantinib] | -2% | 95% | -3% | -8% | -1.49% | 67% | -3% | 47% | 99% | 32% |  |  |  |  |  |  |  |  |  | 
C[C@@H](Oc1cc(-c2cnn(C3CCNCC3)c2)cnc1N)c1c(Cl)ccc(F)c1Cl [crizotinib] | 1.46% | 26% | -2.6% | -6% | 21% | -6% | -2% | -3.41% |  |  |  |  |  |  |  |  |  |  |  | 
CC(C)(C)c1nc(-c2cccc(NS(=O)(=O)c3c(F)cccc3F)c2F)c(-c2ccnc(N)n2)s1 [dabrafenib] | 4% | 57% |  | -8.54% | 8% | 65% | -2.85% | -3.43% | 13% | 2.55% |  |  |  |  |  |  |  |  |  | 
Cc1nc(Nc2ncc(C(=O)Nc3c(C)cccc3Cl)s2)cc(N2CCN(CCO)CC2)n1 [dasatinib] | 6% |  |  | -0.563% | -4.66% |  |  | 0.799% |  | -4.63% |  |  |  |  |  |  |  |  |  | 
C#Cc1cccc(Nc2ncnc3cc(OCCOC)c(OCCOC)cc23)c1 [erlotinib] |  |  |  |  |  |  |  |  |  |  | 6% | 6% | 26% | 1.68% | 46% | 4% | 3.5% | 10% | -5% | -4%
O=S(=O)(c1cccc2cnccc12)N1CCCNCC1 [fasudil] | 2.82% | -2.15% | 44% | 3.31% | 26% | -0.764% |  | -4.39% | -5% | -5.56% |  |  |  |  |  |  |  |  |  | 
CS(=O)(=O)CCNCc1ccc(-c2ccc3ncnc(Nc4ccc(OCc5cccc(F)c5)c(Cl)c4)c3c2)o1 [lapatinib] | 2.49% |  |  |  | -3.21% | 0.236% | -5% | 5.43% | 6.56% | -3% |  |  | -0.366% | -1% |  |  |  |  |  | 
Cc1ccc(C(=O)Nc2ccc(CN3CCN(C)CC3)c(C(F)(F)F)c2)cc1C#Cc1cnc2cccnn12 [ponatinib] | 7.57% | 98% | -0.866% | -5.68% | -4% | 27% | 1.18% |  |  | 17% |  |  |  |  |  |  |  |  |  | 
CCN(CC)CCNC(=O)c1c(C)[nH]c(/C=C2\C(=O)Nc3ccc(F)cc32)c1C [sunitinib] | 60% |  |  |  | 85% |  |  |  |  |  |  |  |  |  |  |  |  |  |  | 
COc1cc2c(Nc3ccc(Br)cc3F)ncnc2cc1OCC1CCN(C)CC1 [vandetanib] | -4.51% |  | -3.59% | -17% | 2.66% | -11% | -16% | 0.0923% | 81% | -4.37% |  |  |  |  |  |  |  |  |  | 
